Drawing on PubChem BioAssay (NCI), this text covers TGI for 11 compounds.

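96-well plates; 48 h exposure; 5 concentrations. Endpoints by linear interpolation between flanking doses. Not reached: highest tested concentration assigned. TGI denotes the concentration required for complete inhibition of growth.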

Common to all, as to experiment: inhibition of tumour cell growth, NCI panel, 48 h
The test system of assay [1] is NCI-H23 lung.
Assay [2] has as its system BT-549 breast.
The test system of assay [3] is HS 578T breast.
The test system of assay [4] is NCI/ADR-RES ovarian.
Assay [5] has as its system SK-MEL-2 melanoma.
In assay [6] the test system is SNB-19 CNS.
For assay [7], the system named is SW-620 colon.
Assay [8] concerns CAKI-1 renal.
Assay [9] has as its system NCI-H522 lung.
For assay [10], the system named is PC-3 prostate.
The subject of assay [11] is DU-145 prostate.
For assay [12], the system named is OVCAR-4 ovarian.

With `COc1cc2c(cc1O)NC(=O)[C@@H]1CCCN1C2=O`, the TGI in [1], in assay [2], in [3], in assay [4], in assay [5] and in [6] was greater than 100 µM throughout. Further, the TGI in assay [7], in assay [8], in assay [9], in assay [10], in assay [11] and in assay [12] was greater than 100 µM in each case.
For the compound `CCOC(=O)c1c(OCC)[nH]c(=O)c(C(c2cccs2)c2c(O)c(C(=O)OCC)c(OCC)[nH]c2=O)c1O`, the TGI in [1] was 82.3 µM; in assay [2] it was 22.7 µM; in [3], greater than 100 µM; in [4], greater than 100 µM; in [5], 29.9 µM; in [6], 39.8 µM. In addition, the TGI in [7] is 34.1 µM; in assay [8], 65.4 µM; in assay [9], 27.6 µM; in assay [10], greater than 100 µM; in assay [11], 26.9 µM; in assay [12], 76 µM.
For `Cc1n[n+](Cc2ccccc2)c2sc(N)nn12`, the TGI in assay [1], in assay [2], in assay [3], in assay [4], in [5] and in assay [6] was greater than 100 µM in each case. Further, the TGI in assay [7] is greater than 100 µM; in assay [8] it was greater than 100 µM; in [9], 76.2 µM; in assay [10], greater than 100 µM; in [11], greater than 100 µM; in assay [12] it was greater than 100 µM.
With `CN1CCc2c(sc3[nH]c(=S)[nH]c(=S)c23)C1`, the TGI in [1], in assay [2], in assay [3], in [4], in assay [5] and in [6] was greater than 100 µM throughout. The TGI in assay [7], in assay [8], in [9], in assay [10], in assay [11] and in assay [12] was greater than 100 µM each time.
Turning to `O=C1CCSCCC(=O)Nc2ccccc2N1`, the TGI in assay [1], in assay [2], in assay [3], in assay [4], in assay [5] and in assay [6] was greater than 100 µM in each case. Moreover, the TGI in assay [7], in [8], in assay [9], in [10], in assay [11] and in assay [12] was greater than 100 µM each time.
With `CC(=O)NC1C(Sc2ncn(C3OC(CO)C(O)C(O)C3NC(C)=O)n2)OC(CO)C(O)C1O` (configuration not stated), the TGI in [1], in assay [2], in [3], in [4], in assay [5] and in assay [6] was greater than 100 µM in each case. Further, the TGI in [7], in assay [8], in [9], in assay [10], in [11] and in assay [12] was greater than 100 µM in each case.
Consider `Cc1ccc(S(=O)(=O)C2=C(C(C)C)N=NC2(C)C)cc1`, for which the TGI in assay [1], in [2], in assay [3], in assay [4], in assay [5] and in [6] was greater than 100 µM in each case. The TGI in assay [7], in assay [8], in assay [9], in assay [10], in assay [11] and in [12] was greater than 100 µM throughout.
For the compound `N#Cc1cc2c(cc1Cl)Sc1nnc(Nc3ccccc3)n1S2(=O)=O`, the TGI in assay [1] turned out to be 3.26 µM; in assay [2], 8.12 µM; in [3], 6.63 µM; in assay [4], 3.43 µM; in [5], 8.26 µM; in assay [6] it was 6.66 µM. The TGI in assay [7] worked out at 3.13 µM; in assay [8], 3.34 µM; in assay [9] it was 4.33 µM; in assay [10], 3.89 µM; in assay [11], 5.2 µM; in assay [12], 7.79 µM.
In the case of `COc1cc2nc(-c3cccs3)nc(Cl)c2cc1OC`, the TGI in assay [1], in assay [2], in [3], in assay [4], in assay [5] and in assay [6] was greater than 100 µM throughout. Also, the TGI in assay [7], in assay [8], in assay [9], in [10], in assay [11] and in assay [12] was greater than 100 µM throughout.
`Cc1c2ccc3ccccc3c2c[n+]2ccccc12`: the TGI in [1] is 15.3 µM; in assay [2], 14.3 µM; in assay [3], 14.9 µM; in assay [4], greater than 100 µM; in [5], 31 µM; in assay [6] it was 23.1 µM. Besides, the TGI was 80.5 µM in assay [7]; greater than 100 µM in [8]; 14.7 µM in assay [9]; greater than 100 µM in assay [10]; greater than 76 µM in [11]; 38.8 µM in [12].
On to `O=P1(Cc2ccccc2)N(Cc2ccccc2)[C@@H]2CCCC[C@H]2N1Cc1ccccc1`, for which the TGI in assay [1] was 23.2 µM; in assay [2], 33.8 µM; in assay [3], 26.5 µM; in [4] it was 23 µM; in assay [5], 25.4 µM; in assay [6], 24.2 µM. Moreover, the TGI in assay [7] turned out to be 30.1 µM; in assay [8] it was 23.7 µM; in assay [9] it was 14.4 µM; in assay [10], 15.3 µM; in [11] it was 27.1 µM; in assay [12], 15.2 µM.
